Assay results: US7432375B2, “JNK inhibitors” (Eisai R & D Management Co., Ltd., priority 2003, dated 2008)

Tests used:
Format in all cases: biochemical
JNK1 = JNK1 (Homo sapiens, UniProt P45983); assay: JNK1 SPA assay; conditions: phosphorylation of GST-c-Jun, 2 μM ATP
Experimental: (§1) JNK1, JNK2, JNK3—SPA Assay
(§2) • 1. Compound is dissolved in DMSO to a convenient concentration and this is diluted in 10% DMSO to a five times concentrate of the desired starting concentration (frequently 1:100). • 2. 10 μl of 500 mM EDTA is added to alternative wells of the Opti-plate row, which will receive kinase reaction plus DMSO. This creates the negative control. • 3. For the JNK2 and JNK3 assay, compounds are prepared in six 2-fold dilutions with water and each concentration is tested in duplicate. For the JNK1 assay compounds are prepared in four 5-fold dilutions with water which are tested in triplicate. Controls are treated identically. • 4. 20 μl per well of each compound concentration is transferred to an Opti-plate, in duplicate. • 5. 30 μl (JNK2/3 SPA) or 50 μl (JNK1 SPA) of substrate solution (25 mM HEPES pH 7.5, 10 mM magnesium acetate with 3.33 μM ATP (JNK2/3) or 2 μM ATP (JNK1), approximately 7.5 kBq [γ-^33P] ATp, GST-c-Jun, in water) is added to each well. • 6. 50 μl (JNK2/3 SPA) or 30 μl (JNK1 SPA) of kinase solution (JNK in 25 mM HEPES pH 7.5, 10 mM Mg Acetate) is added to each well.
(§3) • 7. The plate is incubated for 30 minutes at room temperature. • 8. 100 μl of bead/stop solution is added to each well (5 mg/ml glutathione-PVT-SPA beads, 40 mM ATP in PBS). • 9. Plates are sealed and incubated for 30 minutes at room temperature, centrifuged for 10 minutes at 2500 g and counted. • 10. The IC50 values are calculated as the concentration of the compound being tested at which the phosphorylation of c-Jun is decreased to 50% of the control value.

JNK3 = JNK3 (Homo sapiens, UniProt P53779); assay: JNK3 SPA assay; conditions: phosphorylation of GST-c-Jun, 3.33 μM ATP
Experimental: as §1, §2, §3

p38 MAP kinase = molecular target: T1, p38 MAP kinase (Homo sapiens, UniProt Q16539); assay: p38 ELISA; conditions: phosphorylation of GST-ATF2, 50 μM ATP
T1 construct: purchased Upstate
Experimental: Active p38 kinase (100 ng; Upstate) was added to 2 μg GST-ATF2 substrate (NEB) in 250 mM Hepes pH 7.5/100 mM MgAc/50 μM ATP (final) in the presence or absence of compounds in 50 μl. The mixture was incubated at 30° C. for 1 hour, and then diluted with 200 μl PBS-Tween (0.05%). From this, duplicate volumes of 100 μl were added to a Reacti-Bind glutathione coated plate (Pierce) and incubated for 1 hour. After washing 3 times with PBS-Tween (0.05%), rabbit anti-phospho-ATF2 (Thr71) antibody (NEB) was added at 1:500, and incubated for another hour at room temperature. After 3 additional washes with PBS-Tween (0.05%), […] anti-rabbit IgG alkaline phosphatase-conjugated secondary antibody (Sigma) was added at 1:1000, the reaction was incubated for a further hour, washed 3 times, and then phosphatase substrate (Sigma) was added (100 μl per well; 3 tablets in 5 ml water). After incubation in the dark at 37° C. for 1 hour, the reaction mixture was transferred to a clear 96 well plate, and the absorbance at 405 nm was read.
The IC50 values are calculated as the concentration of the compound being tested at which the phosphorylation of ATF2 is decreased to 50% of the control value.

JNK2 = JNK2 (Homo sapiens, UniProt P45984); assay: JNK2 SPA assay; conditions: phosphorylation of GST-c-Jun, 3.33 μM ATP
Experimental: as §1, §2, §3

T1 sequence (Q16539 whole entry): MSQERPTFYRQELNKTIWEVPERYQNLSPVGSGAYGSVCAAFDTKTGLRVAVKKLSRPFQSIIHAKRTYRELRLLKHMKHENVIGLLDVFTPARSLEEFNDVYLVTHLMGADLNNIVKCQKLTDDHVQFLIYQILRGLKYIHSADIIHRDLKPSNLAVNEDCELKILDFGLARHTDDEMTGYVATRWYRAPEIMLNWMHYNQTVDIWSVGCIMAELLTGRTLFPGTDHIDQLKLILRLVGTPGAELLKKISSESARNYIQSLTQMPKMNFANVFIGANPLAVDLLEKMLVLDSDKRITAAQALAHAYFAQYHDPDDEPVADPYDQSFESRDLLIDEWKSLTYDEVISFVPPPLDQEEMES
Sequence of JNK1 (P45983 whole entry): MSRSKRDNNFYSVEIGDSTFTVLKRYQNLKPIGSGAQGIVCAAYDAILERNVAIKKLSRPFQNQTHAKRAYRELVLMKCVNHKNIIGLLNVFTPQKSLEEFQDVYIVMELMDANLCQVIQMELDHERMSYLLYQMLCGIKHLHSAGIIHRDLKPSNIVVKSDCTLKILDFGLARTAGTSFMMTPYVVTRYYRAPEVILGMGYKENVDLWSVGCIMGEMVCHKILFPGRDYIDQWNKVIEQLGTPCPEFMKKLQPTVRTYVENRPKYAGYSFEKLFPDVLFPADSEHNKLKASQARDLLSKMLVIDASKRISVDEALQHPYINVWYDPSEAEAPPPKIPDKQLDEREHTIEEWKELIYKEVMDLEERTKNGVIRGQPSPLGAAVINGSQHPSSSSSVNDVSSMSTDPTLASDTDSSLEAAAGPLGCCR
Sequence of JNK2 (P45984 whole entry): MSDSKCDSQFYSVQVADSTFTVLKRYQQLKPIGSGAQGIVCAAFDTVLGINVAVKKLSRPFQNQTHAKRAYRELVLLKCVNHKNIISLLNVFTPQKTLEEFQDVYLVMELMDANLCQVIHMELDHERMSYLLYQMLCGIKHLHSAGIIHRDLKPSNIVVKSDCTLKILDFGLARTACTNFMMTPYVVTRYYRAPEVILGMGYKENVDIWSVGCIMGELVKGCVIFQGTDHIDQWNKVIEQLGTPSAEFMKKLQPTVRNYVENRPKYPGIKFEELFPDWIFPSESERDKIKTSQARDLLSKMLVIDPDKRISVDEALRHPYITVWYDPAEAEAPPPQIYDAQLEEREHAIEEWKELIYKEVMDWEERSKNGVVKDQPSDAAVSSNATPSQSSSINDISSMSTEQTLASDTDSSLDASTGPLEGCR
Sequence of JNK3 (P53779 whole entry): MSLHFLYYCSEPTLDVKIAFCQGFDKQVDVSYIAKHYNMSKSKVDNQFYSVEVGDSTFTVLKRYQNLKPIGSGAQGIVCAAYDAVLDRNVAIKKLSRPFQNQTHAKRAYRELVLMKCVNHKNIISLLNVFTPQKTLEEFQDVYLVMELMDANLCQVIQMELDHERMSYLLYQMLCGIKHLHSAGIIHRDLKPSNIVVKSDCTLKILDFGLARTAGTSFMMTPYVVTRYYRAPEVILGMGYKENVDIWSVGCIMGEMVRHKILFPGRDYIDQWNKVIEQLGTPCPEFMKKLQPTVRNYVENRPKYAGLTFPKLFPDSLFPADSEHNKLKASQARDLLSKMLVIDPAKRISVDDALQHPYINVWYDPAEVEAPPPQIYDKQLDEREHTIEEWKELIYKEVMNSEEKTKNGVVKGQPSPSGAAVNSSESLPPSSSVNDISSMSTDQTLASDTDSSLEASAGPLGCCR

| Structure (SMILES) | IC50 (JNK1) [nM] | IC50 (JNK3) [nM] | IC50 (p38 MAP kinase) [nM] | IC50 (JNK2) [nM] |
| --- | --- | --- | --- | --- |
| CN(C)c1ccc(-c2cnc3[nH]cc(-c4ccoc4)c3c2)cc1 | < 500 | < 500 | > 10000 | < 500 |
| c1csc(-c2cnc3[nH]cc(-c4ccoc4)c3c2)c1 | < 500 | < 500 | > 10000 | < 500 |
| CN(C)c1ccc(-c2cnc3[nH]cc(-c4cc[nH]c4)c3c2)cc1 | – | < 500 | – | – |
| c1csc(-c2cnc3[nH]cc(-c4cncs4)c3c2)c1 | < 500 | < 500 | > 10000 | < 500 |
| Fc1cccc(-c2c[nH]c3ncc(-c4ccccc4Oc4ccccc4)cc23)c1 | – | < 500 | – | – |
| c1ccc(Oc2ccccc2-c2cnc3[nH]cc(-c4ccccc4)c3c2)cc1 | – | < 500 | – | – |
